Results taken from patent US6967079B2, “Pyrimidine derivatives for labeled binding partners” (ISIS Pharmaceuticals, Inc., priority 1993, dated 2005).

Assay: Fluorescence excitation and emission wavelengths
Assay type: physicochemical
Set-up: unit not given here
Conditions: deoxyriboside compound

Substance: 2′-Deoxphenothiazine [phenothiazine deoxyriboside]
- emission wavelength (EM): 492
